The record followed here is publication PMC6556873, “Rapid Covalent-Probe Discovery by Electrophile-Fragment Screening” (Journal of the American Chemical Society, 2019).

Read-outs that look alike come from different tables or passages of the source.

Data set [1] addresses T1, BSA (Bos taurus, UniProt P02769).
T1 construct: gene ALB
Further details: Intact protein LC/MS covalent labelling, fragments in pools of five, 200 uM each, 4 °C. The conditions noted are these: 24 h, 4 °C, pool of five; 200 µM; covalent.

Data set [2] has as its target T2, PCAF (Homo sapiens, UniProt Q92831).
T2 construct: gene KAT2B
Details: Intact protein LC/MS covalent labelling, fragments in pools of five, 200 uM each, 4 °C. As to conditions: 24 h, 4 °C, pool of five; 200 µM; covalent.

Data set [3] deals with T3, NUDT7 (Homo sapiens, UniProt P0C024).
T3 construct: residues 14-235, E. coli, pNIC28-Bsa4, N-terminal His6 tag removed by TEV, construct 26672 Da
Details: Intact protein LC/MS covalent labelling, fragments in pools of five, 200 uM each, 4 °C. As to conditions: 24 h, 4 °C, pool of five; 200 µM; covalent.

Data set [4] has as its target T4, OTUB2 (OTUB2A) (Homo sapiens, UniProt Q96DC9).
T4 construct: full length residues 1-234, E. coli BL21(DE3)-R3, His tag removed by TEV, construct 27312 Da
T4 sequence (Q96DC9 1-234): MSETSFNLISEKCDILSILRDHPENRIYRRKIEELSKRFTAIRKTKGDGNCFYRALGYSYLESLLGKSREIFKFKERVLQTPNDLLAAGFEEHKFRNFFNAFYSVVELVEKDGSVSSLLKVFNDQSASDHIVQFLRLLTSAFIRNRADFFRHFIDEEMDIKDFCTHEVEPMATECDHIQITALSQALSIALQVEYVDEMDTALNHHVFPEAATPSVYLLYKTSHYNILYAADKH
Details: Intact protein LC/MS covalent labelling, fragments in pools of five, 200 uM each, 4 °C. The conditions noted are these: 24 h, 4 °C, pool of five; 200 µM; covalent.

The nature of data set [5]: in vitro. Further details: species or system HB2, CCD841. The conditions noted are these: human, hek293 cells.
Data set [6] in a line: in vitro. The conditions noted are these: human, hb2 cells, read-out: HB-2 Cells Viability (%). Details: species or system CCD841, HEK293.
The nature of data set [7]: in vitro. Details: species or system HB2, HEK293. The conditions noted are these: human, ccd841 cells.

T2 sequence (Q92831 whole entry): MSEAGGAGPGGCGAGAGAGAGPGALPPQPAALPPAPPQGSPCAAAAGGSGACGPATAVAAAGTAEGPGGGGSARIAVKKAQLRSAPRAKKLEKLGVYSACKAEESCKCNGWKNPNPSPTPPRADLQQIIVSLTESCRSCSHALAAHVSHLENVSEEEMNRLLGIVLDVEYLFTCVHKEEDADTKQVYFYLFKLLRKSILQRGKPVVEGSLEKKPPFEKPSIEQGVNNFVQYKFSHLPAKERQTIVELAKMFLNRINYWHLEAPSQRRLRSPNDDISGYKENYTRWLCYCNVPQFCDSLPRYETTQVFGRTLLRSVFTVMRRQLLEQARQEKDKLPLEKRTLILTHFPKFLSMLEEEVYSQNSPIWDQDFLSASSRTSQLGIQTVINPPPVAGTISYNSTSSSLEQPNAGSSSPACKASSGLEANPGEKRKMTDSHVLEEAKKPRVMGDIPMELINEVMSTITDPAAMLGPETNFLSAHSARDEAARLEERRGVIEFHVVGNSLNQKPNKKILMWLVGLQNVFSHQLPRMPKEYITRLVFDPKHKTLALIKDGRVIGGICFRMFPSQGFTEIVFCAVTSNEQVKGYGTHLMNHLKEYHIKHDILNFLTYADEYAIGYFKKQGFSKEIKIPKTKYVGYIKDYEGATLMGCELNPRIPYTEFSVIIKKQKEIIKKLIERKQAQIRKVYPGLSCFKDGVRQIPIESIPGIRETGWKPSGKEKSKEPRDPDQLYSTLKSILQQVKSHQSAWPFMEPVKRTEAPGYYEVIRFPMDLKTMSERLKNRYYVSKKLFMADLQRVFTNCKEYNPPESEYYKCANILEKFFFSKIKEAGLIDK
T1 sequence (P02769 whole entry): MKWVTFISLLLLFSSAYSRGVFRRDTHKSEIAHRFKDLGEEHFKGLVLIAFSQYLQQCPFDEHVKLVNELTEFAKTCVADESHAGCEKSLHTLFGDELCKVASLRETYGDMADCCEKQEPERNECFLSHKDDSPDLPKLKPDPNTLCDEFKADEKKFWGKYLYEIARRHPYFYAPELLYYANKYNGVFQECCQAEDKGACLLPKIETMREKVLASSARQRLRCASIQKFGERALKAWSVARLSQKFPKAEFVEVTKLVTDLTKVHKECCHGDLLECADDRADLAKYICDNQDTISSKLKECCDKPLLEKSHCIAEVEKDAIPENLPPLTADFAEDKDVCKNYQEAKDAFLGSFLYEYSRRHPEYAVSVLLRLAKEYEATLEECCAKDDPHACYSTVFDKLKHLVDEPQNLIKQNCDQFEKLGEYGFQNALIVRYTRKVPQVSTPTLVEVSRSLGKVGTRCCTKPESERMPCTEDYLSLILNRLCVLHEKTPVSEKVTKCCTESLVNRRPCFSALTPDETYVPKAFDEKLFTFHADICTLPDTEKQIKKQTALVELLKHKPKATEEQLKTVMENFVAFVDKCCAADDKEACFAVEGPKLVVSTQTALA
T3 sequence (P0C024 14-235): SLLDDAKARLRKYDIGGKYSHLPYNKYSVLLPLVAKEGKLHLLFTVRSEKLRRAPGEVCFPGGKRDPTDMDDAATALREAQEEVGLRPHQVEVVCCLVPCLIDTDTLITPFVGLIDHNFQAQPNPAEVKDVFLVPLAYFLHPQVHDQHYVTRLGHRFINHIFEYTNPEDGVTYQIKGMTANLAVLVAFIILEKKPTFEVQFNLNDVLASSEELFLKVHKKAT

In the case of `O=C(CCl)NCC#Cc1cccc(C(F)(F)F)c1` [PCM-0103011], the BSA in data set [1] was found to be 0. This compound also showed a PCAF in data set [2] of 0. In data set [3], the NUDT7 was determined as 0. Moreover, in data set [4], the OTUB2 is 0.84. For the same compound, the viability at 48 h, 10 µM came to 52.5% in data set [5], 56.8% in data set [6] and 77.4% in data set [7].

Consider `NC(=O)C1CCCCN1C(=O)CCl` (stereo not drawn) [PCM-0102203], for which the BSA in data set [1] stood at 0. The PCAF in data set [2] turned out to be 0. The NUDT7 in data set [3] amounted to 0. Further, the OTUB2 in data set [4] came out at 0. The viability at 48 h, 10 µM in data set [5] stood at 50.7%; in data set [6], 79.7%; in data set [7], 75.3%.

In data set [1], `Cc1ccc(NC(=O)CCl)cc1I` [PCM-0102577] showed a BSA of 0. In addition, the PCAF in data set [2] was 0. In addition, the NUDT7 in data set [3] was 0.34. The same compound registered an OTUB2 in data set [4] of 0.8. Also, the viability at 48 h, 10 µM stood at 2.4% in data set [5], 4.6% in data set [6] and 17.9% in data set [7].

`COC(=O)C1Cc2ccccc2CN1C(=O)CCl` (stereo not drawn) [PCM-0102841] registered a BSA in data set [1] of 0. The compound also showed a PCAF in data set [2] of 0. In addition, the NUDT7 in data set [3] stood at 0.19. Besides, the OTUB2 in data set [4] is recorded as 0.41. Also, the viability at 48 h, 10 µM in data set [5] came out at 60.3%; in data set [6], 96.4%; in data set [7] it was 77.3%.

In data set [1], `Cc1ccc(C(=O)O)cc1NC(=O)CCl` [PCM-0102624] came in with a BSA of 0. The PCAF in data set [2] was 0. This compound showed an NUDT7 in data set [3] of 0. Besides, in data set [4], the OTUB2 is 0. Further, the values for the viability at 48 h, 10 µM in data set [5], in data set [6] and in data set [7] were 86.2%, 102% and 108%, respectively.

On to `C=CC(=O)N1CCN(c2nc3ccccc3o2)C(C)C1` (stereo not drawn) [PCM-0102441], for which the BSA in data set [1] stood at 0. In data set [2], this compound displayed a PCAF of 0. Also, the NUDT7 in data set [3] turned out to be 0. This compound showed an OTUB2 in data set [4] of 0. Also, the viability at 48 h, 10 µM is 88.3% in data set [5], 96.7% in data set [6] and 99.4% in data set [7].

The compound `Cc1nnc(NC(=O)CCl)s1` [PCM-0102211] yielded a BSA in data set [1] of 0. Besides, in data set [2], the PCAF came to 0. The compound further showed an NUDT7 in data set [3] of 0. Besides, the OTUB2 in data set [4] is 0. Besides, the viability at 48 h, 10 µM in data set [5] came out at 90.5%; in data set [6], 99.8%; in data set [7], 86.7%.

The compound `Cc1cccc(C(C)C)c1NC(=O)CCl` [PCM-0102358] gave a BSA in data set [1] of 0. In data set [2], this compound showed a PCAF of 0. The compound also had an NUDT7 in data set [3] of 0. This compound had an OTUB2 in data set [4] of 0. The viability at 48 h, 10 µM in data set [5] was found to be 76.5%; in data set [6], 102%; in data set [7], 89.3%.

`CN(C(=O)CCl)C1(c2ccccc2Cl)CCCCC1=O` (stereo not drawn) [PCM-0102359] showed a BSA in data set [1] of 0. In data set [2], this compound registered a PCAF of 0. Further, the NUDT7 in data set [3] amounted to 0. This compound also showed an OTUB2 in data set [4] of 0. Moreover, the viability at 48 h, 10 µM in data set [5] came out at 87.5%; in data set [6], 85.2%; in data set [7], 104%.

Take `C=CC(=O)NC1(C2CC2)CCOCC1` [PCM-0102450]: in data set [1], the BSA was 0. The same compound gave a PCAF in data set [2] of 0. The NUDT7 in data set [3] is reported as 0. Besides, the OTUB2 in data set [4] was 0. In addition, the viability at 48 h, 10 µM came out at 111% in data set [5], 96.2% in data set [6] and 106% in data set [7].

Regarding `CC(c1ccccc1)N1CCN(C(=O)CCl)CC1.Cl` (stereo not drawn) [PCM-0102710], the BSA in data set [1] stood at 0. For the same compound, the PCAF in data set [2] came to 0. This compound gave an NUDT7 in data set [3] of 0. In data set [4], this compound had an OTUB2 of 0.12. Also, the viability at 48 h, 10 µM came to 41.3% in data set [5], 36.7% in data set [6] and 72.5% in data set [7].

`O=C(CCl)N(C1CCCC1)C1CCS(=O)(=O)C1` (stereo not drawn) [PCM-0102313] returned a BSA in data set [1] of 0. The compound further gave a PCAF in data set [2] of 0. Moreover, in data set [3], the NUDT7 amounted to 0.11. In data set [4], this compound showed an OTUB2 of 0. For the same compound, the values for the viability at 48 h, 10 µM in data set [5], in data set [6] and in data set [7] were 42.7%, 64.5% and 65.9%, respectively.

`Cc1cc(NC(=O)CCl)n(-c2ccc(F)cc2)n1` [PCM-0102665] registered a BSA in data set [1] of 0. In addition, in data set [2], the PCAF is 0. Also, in data set [3], the NUDT7 was 0. In addition, the OTUB2 in data set [4] was found to be 0.53. In addition, the figures for the viability at 48 h, 10 µM in data set [5], in data set [6] and in data set [7] were 20.6%, 57% and 67.6%, respectively.

In the case of `CC(C)(C)NC(=O)NC(=O)CCl` [PCM-0102540], in data set [1], the BSA is on record as 0. The compound also yielded a PCAF in data set [2] of 0. Also, the NUDT7 in data set [3] was found to be 0. Also, the OTUB2 in data set [4] worked out at 0. In addition, the viability at 48 h, 10 µM is 113% in data set [5], 111% in data set [6] and 140% in data set [7].

As for `C=CC(=O)N1CCCC1c1cc(C)on1` (stereo not drawn) [PCM-0102683], in data set [1], the BSA came out at 0. In data set [2], this compound came in with a PCAF of 0. For the same compound, the NUDT7 in data set [3] turned out to be 0. This compound also yielded an OTUB2 in data set [4] of 0.12. For the same compound, the viability at 48 h, 10 µM was determined as 121% in data set [5], 103% in data set [6] and 101% in data set [7].

In data set [1], `C=CC(=O)N1CCCC(c2nc(-c3cccc(F)c3)no2)C1` (stereo not drawn) [PCM-0102689] gave a BSA of 0. Further, in data set [2], the PCAF turned out to be 0. This compound also came in with an NUDT7 in data set [3] of 0. The same compound registered an OTUB2 in data set [4] of 0. Further, the viability at 48 h, 10 µM in data set [5] worked out at 89.4%; in data set [6], 101%; in data set [7] it was 97.4%.

In data set [1], `O=C(CCl)Nc1ccc(N2CCOCC2)cc1` [PCM-0102582] showed a BSA of 0. Moreover, the PCAF in data set [2] was determined as 0. Moreover, the NUDT7 in data set [3] stood at 0. The compound further yielded an OTUB2 in data set [4] of 0.54. The viability at 48 h, 10 µM in data set [5] was found to be 57.2%; in data set [6] it was 74.9%; in data set [7] it was 79.5%.

Consider `CC(=O)N1CCN(C(=O)CCl)CC1` [PCM-0102535], for which the BSA in data set [1] was determined as 0.2. This compound also came in with a PCAF in data set [2] of 0. This compound registered an NUDT7 in data set [3] of 0.06. For the same compound, the OTUB2 in data set [4] came out at 0. Also, the viability at 48 h, 10 µM stood at 37.6% in data set [5], 85.7% in data set [6] and 82.8% in data set [7].

`O=C(CCl)Nc1ccccc1I` [PCM-0102509] gave a BSA in data set [1] of 0.1. The PCAF in data set [2] was 0. In data set [3], this compound gave an NUDT7 of 0. Also, in data set [4], the OTUB2 was 0. The viability at 48 h, 10 µM came out at 99.4% in data set [5], 95.5% in data set [6] and 91.1% in data set [7].

Take `C=CC(=O)N1CC(OC(=O)Nc2cccc(F)c2)C1` [PCM-0102688]: in data set [1], the BSA stood at 0. Moreover, the PCAF in data set [2] is listed as 0. In data set [3], this compound returned an NUDT7 of 0. The compound also gave an OTUB2 in data set [4] of 0.17. Further, the values for the viability at 48 h, 10 µM in data set [5], in data set [6] and in data set [7] were 95.8%, 82.3% and 99%, respectively.

Compound `CC1(NC(=O)CCl)CCS(=O)(=O)C1` (stereo not drawn) [PCM-0102230] yielded a BSA in data set [1] of 0. The PCAF in data set [2] is 0. The compound also had an NUDT7 in data set [3] of 0. In data set [4], this compound registered an OTUB2 of 0. The viability at 48 h, 10 µM in data set [5] was 92.6%; in data set [6], 105%; in data set [7] it was 92.7%.

Consider `O=C(CCl)Nc1cc(F)ccc1C(=O)O` [PCM-0102247], for which the BSA in data set [1] was 0. In data set [2], this compound displayed a PCAF of 0. In addition, the NUDT7 in data set [3] is 0. For the same compound, the OTUB2 in data set [4] is recorded as 0. The viability at 48 h, 10 µM in data set [5] is 97%; in data set [6], 106%; in data set [7] it was 95.7%.

`C=CC(=O)NCc1ccon1` [PCM-0102482]: the BSA in data set [1] was 0. This compound also yielded a PCAF in data set [2] of 0. This compound yielded an NUDT7 in data set [3] of 0. The compound also showed an OTUB2 in data set [4] of 0. Moreover, the viability at 48 h, 10 µM came out at 90.3% in data set [5], 98.9% in data set [6] and 92.9% in data set [7].

In turn, `C=CC(=O)N1CCC(S(=O)(=O)N2CCCC2)C1` (stereo not drawn) [PCM-0102701] showed a BSA in data set [1] of 0.12. The same compound yielded a PCAF in data set [2] of 0. In addition, in data set [3], the NUDT7 was 0. In addition, the OTUB2 in data set [4] worked out at 0. The viability at 48 h, 10 µM came out at 85.2% in data set [5], 97.8% in data set [6] and 95.6% in data set [7].

The viability is a read-out of living cells in per cent, often relative to untreated cells.
